This note sets out measurements from patent publication US20230002372A1, “AZAINDOLE CARBOXAMIDE COMPOUNDS FOR THE TREATMENT OF MYCOBACTERIAL INFECTIONS” (THE GLOBAL ALLIANCE FOR TB DRUG DEVELOPMENT, INC., priority 2019, published 2023).

Converted amounts (≈) assume the structure as drawn.

The test concerns M tb H37Rv. Briefly: MIC determination against M tb H37Rv (green fluorescent protein reporter assay; MIC-MABA). The test is classed as cell-based, Mycobacterium tuberculosis. The settings on record: Mycobacterium tuberculosis, H37RV, 240 h, read-out: M. TB H37Rv: MIC-MABA: MIC, M. tb H37Rv; 7H9 broth; 10 days exposure; MIC = lowest concentration inhibiting fluorescence by 90%. (In general: Reporter assays use an easily measured gene product as a stand-in for the process of interest.)

As usually defined, the MIC is the smallest concentration in the dilution series that meets the test's criterion for growth inhibition. In the case of `Cc1c(C(=O)NC2CC[Si](C)(C)CC2)[nH]c2nccc(F)c12` [MPL-210, N-(1,1-dimethylsilinan-4-yl)-4-fluoro-3-methyl-1H-pyrrolo[2,3-b]pyridine-2-carboxamide], the MIC was determined as 0.058 µg/mL (≈ 0.182 µM). With `O=C(NC1CCCCCCC1)c1cc2c(F)ccnc2[nH]1` [MPL-027, N-cyclooctyl-4-fluoro-1H-pyrrolo[2,3-b]pyridine-2-carboxamide] the figure was 0.61 µg/mL (≈ 2.11 µM); with `Cc1nc2[nH]c(C(=O)NC3CCCC[Si](C)(C)CC3)cc2c(F)c1Cl` (centres unmarked) [MPL-292, 5-chloro-N-(1,1-dimethylsilocan-4-yl)-4-fluoro-6-methyl-1H-pyrrolo[2,3-b]pyridine-2-carboxamide], 0.0271 µg/mL (≈ 0.071 µM).

Turning to `Cc1nc2[nH]c(C(=O)NC3CC[Si](C)(C)CC3)cc2c(C)c1F` [MPL-237, N-(1,1-dimethylsilinan-4-yl)-5-fluoro-4,6-dimethyl-1H-pyrrolo[2,3-b]pyridine-2-carboxamide], the minimum inhibitory concentration (MIC) was found to be 0.047 µg/mL (≈ 0.141 µM). Under `O=C(NC1CC[Si]2(CCCCC2)CC1)c1cc2c(F)cncc2[nH]1` [MPL-259, 4-fluoro-N-(6-silaspiro[5.5]undecan-3-yl)-1H-pyrrolo[2,3-c]pyridine-2-carboxamide] stands 0.054 µg/mL (≈ 0.156 µM); under `CC1(C)CCC(NC(=O)c2cc3c(Cl)cncc3[nH]2)CC1` [MPL-003, 4-chloro-N-(4,4-dimethylcyclohexyl)-1H-pyrrolo[2,3-c]pyridine-2-carboxamide], 0.01 µg/mL (≈ 0.0327 µM); under `C[C@@H]1[C@@H](NC(=O)c2cc3c(C#N)cncc3[nH]2)C[C@H]2C[C@@H]1C2(C)C` [MPL-095, 4-cyano-N-[(1S,2S,3S,5R)-2,6,6-trimethylnorpinan-3-yl]-1H-pyrrolo[2,3-c]pyridine-2-carboxamide], 1.5 µg/mL (≈ 4.65 µM). Under `Cc1ccnc2[nH]c(C(=O)N[C@H]3C[C@H]4C[C@@H]([C@@H]3C)C4(C)C)cc12` [MPL-016, 4-methyl-N-[(1S,2S,3S,5R)-2,6,6-trimethylnorpinan-3-yl]-1H-pyrrolo[2,3-b]pyridine-2-carboxamide] stands 0.38 µg/mL (≈ 1.22 µM). With `C[Si]1(C)CCCC(NC(=O)c2cc3c(F)c(Cl)ncc3[nH]2)CC1` (centres unmarked) [MPL-346, 5-chloro-N-(1,1-dimethylsilepan-4-yl)-4-fluoro-1H-pyrrolo[2,3-c]pyridine-2-carboxamide] the figure was 0.464 µg/mL (≈ 1.31 µM); with `O=C(NC1CC[Si]2(CCCCC2)CC1)c1cc2cc(-c3cccnc3)cnc2[nH]1` [MPL-435, 5-(3-pyridyl)-N-(6-silaspiro[5.5]undecan-3-yl)-1H-pyrrolo[2,3-b]pyridine-2-carboxamide], 1 µg/mL (≈ 2.47 µM). With `C[Si]1(C)CCC(NC(=O)c2cc3c(F)c(C(F)(F)F)ncc3[nH]2)CC1` [MPL-322, N-(1,1-dimethylsilinan-4-yl)-4-fluoro-5-(trifluoromethyl)-1H-pyrrolo[2,3-c]pyridine-2-carboxamide], the MIC worked out at 0.484 µg/mL (≈ 1.3 µM). Under `C[Si]1(C)CCC(NC(=O)c2cc3c(C(F)(F)F)ccnc3[nH]2)CC1` [MPL-111, N-(1,1-dimethylsilinan-4-yl)-4-(trifluoromethyl)-1H-pyrrolo[2,3-b]pyridine-2-carboxamide] stands 0.0095 µg/mL (≈ 0.0267 µM); under `Cc1nc2[nH]c(C(=O)NC3CCC[Si](C)(C)CC3)cc2c(F)c1F` (centres unmarked) [MPL-282, N-(1,1-dimethylsilepan-4-yl)-4,5-difluoro-6-methyl-1H-pyrrolo[2,3-b]pyridine-2-carboxamide], less than 0.004 µg/mL. With `C[Si]1(C)CCC(NC(=O)c2cc3c(Cl)c(C(F)(F)F)ncc3[nH]2)CC1` [MPL-329, 4-chloro-N-(1,1-dimethylsilinan-4-yl)-5-(trifluoromethyl)-1H-pyrrolo[2,3-c]pyridine-2-carboxamide] the figure was 0.491 µg/mL (≈ 1.26 µM).

On to `C[Si]1(C)CCC(NC(=O)c2cc3ccc(-c4ccccc4)nc3[nH]2)CC1` [MPL-388, N-(1,1-dimethylsilinan-4-yl)-6-phenyl-1H-pyrrolo[2,3-b]pyridine-2-carboxamide], for which the MIC came to 0.012 µg/mL (≈ 0.033 µM). Turning to `Cc1ncc2[nH]c(C(=O)NC3CC[Si](C)(C)CC3)cc2c1F` [MPL-318, N-(1,1-dimethylsilinan-4-yl)-4-fluoro-5-methyl-1H-pyrrolo[2,3-c]pyridine-2-carboxamide], the MIC is 0.134 µg/mL (≈ 0.419 µM).

Take `C[Si]1(C)CCC(NC(=O)c2cc3c(C#N)ccnc3[nH]2)CC1` [MPL-110, 4-cyano-N-(1,1-dimethylsilinan-4-yl)-1H-pyrrolo[2,3-b]pyridine-2-carboxamide]: the MIC is 0.022 µg/mL (≈ 0.0704 µM).

As to `Cc1nc(F)cc2cc(C(=O)N[C@H]3C[C@H]4C[C@@H]([C@@H]3C)C4(C)C)[nH]c12` [MPL-134, 5-fluoro-7-methyl-N-[(1S,2S,3S,5R)-2,6,6-trimethylnorpinan-3-yl]-1H-pyrrolo[2,3-c]pyridine-2-carboxamide], the MIC is 3.1 µg/mL (≈ 9.41 µM). For `Cc1cc(F)c2c(C)c(C(=O)NC3CC[Si]4(CCCCC4)CC3)[nH]c2n1` [MPL-281, 4-fluoro-3,6-dimethyl-N-(6-silaspiro[5.5]undecan-3-yl)-1H-pyrrolo[2,3-b]pyridine-2-carboxamide], the MIC worked out at 0.0151 µg/mL (≈ 0.0404 µM). With `Cc1ncc2[nH]c(C(=O)NC3CCC(C)(C)CC3)cc2c1F` [MPL-141, N-(4,4-dimethylcyclohexyl)-4-fluoro-5-methyl-1H-pyrrolo[2,3-c]pyridine-2-carboxamide], the MIC was determined as 0.29 µg/mL (≈ 0.956 µM). Regarding `CC1(C)CCC(NC(=O)c2cc3c(F)cncc3[nH]2)CC1` [MPL-094, N-(4,4-dimethylcyclohexyl)-4-fluoro-1H-pyrrolo[2,3-c]pyridine-2-carboxamide], the MIC is 0.049 µg/mL (≈ 0.169 µM). With `CC1(C)CCC(NC(=O)c2cc3c(Br)ccnc3[nH]2)CC1` [MPL-007, 4-bromo-N-(4,4-dimethylcyclohexyl)-1H-pyrrolo[2,3-b]pyridine-2-carboxamide] the figure was 0.12 µg/mL (≈ 0.343 µM). Under `O=C(NC1CCC2(CCC2)CC1)c1cc2c(F)ccnc2[nH]1` [MPL-002, 4-fluoro-N-spiro[3.5]nonan-7-yl-1H-pyrrolo[2,3-b]pyridine-2-carboxamide] stands 0.056 µg/mL (≈ 0.186 µM); under `O=C(NC1CC[Si]2(CCCC2)CC1)c1cc2c(F)c(C(F)(F)F)ncc2[nH]1` [MPL-367, 4-fluoro-N-(5-silaspiro[4.5]decan-8-yl)-5-(trifluoromethyl)-1H-pyrrolo[2,3-c]pyridine-2-carboxamide], 0.988 µg/mL (≈ 2.47 µM); under `Cc1ncc2[nH]c(C(=O)NC3CC[Si](C)(C)CC3)cc2c1Cl` [MPL-328, 4-chloro-N-(1,1-dimethylsilinan-4-yl)-5-methyl-1H-pyrrolo[2,3-c]pyridine-2-carboxamide], 0.061 µg/mL (≈ 0.182 µM). For `Cc1cc2cc(C(=O)N[C@H]3C[C@H]4C[C@@H]([C@@H]3C)C4(C)C)[nH]c2c(F)n1` [MPL-122, 7-fluoro-5-methyl-N-[(1S,2S,3S,5R)-2,6,6-trimethylnorpinan-3-yl]-1H-pyrrolo[2,3-c]pyridine-2-carboxamide], the MIC is 3.1 µg/mL (≈ 9.41 µM).

For `CC1(C)C=CC(NC(=O)c2cc3c(F)ccnc3[nH]2)CC1` (centres unmarked) [MPL-160, N-(4,4-dimethylcyclohex-2-en-1-yl)-4-fluoro-1H-pyrrolo[2,3-b]pyridine-2-carboxamide], the MIC came out at 0.77 µg/mL (≈ 2.68 µM). `Cc1cc(Cl)c2cc(C(=O)N[C@H]3CC[Si](C)(C)C3)[nH]c2n1` (single isomer, unassigned) [MPL-401B]: the minimum inhibitory concentration (MIC) came out at 0.007 µg/mL (≈ 0.0217 µM). Under `C[C@@H]1[C@@H](NC(=O)c2cc3c(C#N)ccnc3[nH]2)C[C@H]2C[C@@H]1C2(C)C` [MPL-013, 4-cyano-N-[(1S,2S,3S,5R)-2,6,6-trimethylnorpinan-3-yl]-1H-pyrrolo[2,3-b]pyridine-2-carboxamide] stands 1.2 µg/mL (≈ 3.72 µM); under `C[C@@H]1[C@@H](NC(=O)c2cc3c(C(F)(F)F)cncc3[nH]2)C[C@H]2C[C@@H]1C2(C)C` [MPL-100, 4-(trifluoromethyl)-N-[(1S,2S,3S,5R)-2,6,6-trimethylnorpinan-3-yl]-1H-pyrrolo[2,3-c]pyridine-2-carboxamide], 0.24 µg/mL (≈ 0.657 µM); under `Cc1nc2[nH]c(C(=O)N[C@H]3C[C@H]4C[C@@H]([C@@H]3C)C4(C)C)cc2c(F)c1F` [MPL-066, 4,5-difluoro-6-methyl-N-[(1S,2S,3S,5R)-2,6,6-trimethylnorpinan-3-yl]-1H-pyrrolo[2,3-b]pyridine-2-carboxamide], 0.012 µg/mL (≈ 0.0345 µM). With `Cc1cc(Cl)c2cc(C(=O)NC3CCCC[Si](C)(C)CC3)[nH]c2n1` (centres unmarked) [MPL-275, 4-chloro-N-(1,1-dimethylsilocan-4-yl)-6-methyl-1H-pyrrolo[2,3-b]pyridine-2-carboxamide] the figure was 0.031 µg/mL (≈ 0.0852 µM); with `C[Si]1(C)CCC(NC(=O)c2cc3c(Cl)c(Cl)ncc3[nH]2)CC1` [MPL-349, 4,5-dichloro-N-(1,1-dimethylsilinan-4-yl)-1H-pyrrolo[2,3-c]pyridine-2-carboxamide], 0.068 µg/mL (≈ 0.191 µM); with `C[C@@H]1[C@@H](NC(=O)c2cc3c(Cl)cncc3[nH]2)C[C@H]2C[C@@H]1C2(C)C` [MPL-006, 4-chloro-N-[(1S,2S,3S,5R)-2,6,6-trimethylnorpinan-3-yl]-1H-pyrrolo[2,3-c]Pyridine-2-carboxamide], 0.3 µg/mL (≈ 0.904 µM). Take `Cc1nc(Cl)c(F)c2cc(C(=O)NC3CC[Si](C)(C)CC3)[nH]c12` [MPL-236, 5-chloro-N-(1,1-dimethylsilinan-4-yl)-4-fluoro-7-methyl-1H-pyrrolo[2,3-c]pyridine-2-carboxamide]: the MIC came out at 0.18 µg/mL (≈ 0.509 µM). Consider `C[Si]1(C)CCC(NC(=O)c2cc3c(Cl)cncc3[nH]2)CC1` [MPL-192, 4-chloro-N-(1,1-dimethylsilinan-4-yl)-1H-pyrrolo[2,3-c]pyridine-2-carboxamide], for which the MIC amounted to 0.0093 µg/mL (≈ 0.0289 µM). Under `C[C@@H]1[C@@H](NC(=O)c2cc3cc(Cl)c(F)nc3[nH]2)C[C@H]2C[C@@H]1C2(C)C` [MPL-064, 5-chloro-6-fluoro-N-[(1S,2S,3S,5R)-2,6,6-trimethylnorpinan-3-yl]-1H-pyrrolo[2,3-b]pyridine-2-carboxamide] stands 0.16 µg/mL (≈ 0.457 µM); under `CC1(C)[C@H]2C[C@H](NC(=O)c3cc4c(F)ccnc4[nH]3)[C@](C)(O)[C@@H]1C2` [MPL-213, 4-fluoro-N-[(1R,2R,3S,5R)-2-hydroxy-2,6,6-trimethyl-norpinan-3-yl]-1H-pyrrolo[2,3-b]pyridine-2-carboxamide], 0.046 µg/mL (≈ 0.139 µM).
